Measurements reported in patent US11358971B2, “Prodrugs of modulators of the NMDA receptor” (H. Lundbeck A/S, priority 2019, dated 2022).
Entries after “also recorded” stand apart in the source; their conditions may differ. One block for each compound: values may come before it.

Legend:
[1] = system: high frequency oscillation; assay: Resting state Electroencephalography (rsEEG); type: in vivo; conditions: 20 mg/kg subcutaneously in 10% HPβCD; 30-40 min after dosing; vs vehicle; rats
Description: On the day of surgery, rats (270-300 g) were anesthetized with a 0.25 ml/100 g subcutaneous (SC) injection of 1:1 hypnorm/Dormicum and mounted in a stereotaxic frame (David Kopf Instruments, Tujunga, Calif., USA) with blunt ear bars. Marcain (0.2 ml SC) was injected under the scalp, and gel (Neutral Opthta Eye Gel) put on the eyes to prevent the mucous membrane drying out. Holes were burred in the skull to allow for placement of two depth electrodes (E363-series; PlasticsOne, Roanoke, Va., USA) in left and right pre/infralimbic PFC (AP: 3.0 mm from the bregma suture, Medial-Lateral (ML): +/−0.7 mm from the sagittal suture and DV: 3.0 mm from the dura) and thalamus (AP: −2.8 mm from the bregma suture, ML: +0.7 mm from the sagittal suture and DV: 4.4 mm from the dura) and three screw electrodes at vertex (AP: −2 mm from the bregma suture, ML: +2.0 mm from the sagittal suture), a reference electrode (AP: +8.0 mm and ML: −2.0 mm), and a ground electrode (AP: −5 mm, ML: +5 mm). […] Animal bodyweights were recorded daily. […]
The development of the locomotive state-detection algorithm and the state-specific pharmaco-EEG analyses were carried out in MATLAB R2017a (The MathWorks, Inc., Natick, Mass., USA) using functions from the sigTOOL toolbox. Significant differences between drug-treated animals and vehicle were assessed according to Turkey's honest significant difference.

[2] = system: tonic hind limb extensor seizure; assay: Maximal Electro Shock Threshold (MEST); type: in vivo; conditions: 3, 10 and 30 mg/kg subcutaneously, 30 min before test; vs vehicle 10% HPβCD; rats
Text: Naïve rats were acclimatised to the procedure room in their home cages, with food and water available ad libitum. All rats were weighed at the beginning of the study and randomly assigned to treatment groups. […] Rats were individually assessed for the production of a tonic hind limb extensor seizure using a Hugo Sachs Electronik stimulator, which delivered an adjustable constant current (1-300 mA) of 0.3 seconds duration via corneal electrodes. The stimulus intensity was varied, from a typical baseline of 25 mA, by an ‘up and down’ method of shock titration. […] This procedure continued for all rats within a treatment group. […] Significant differences between drug-treated animals and vehicle were assessed according to Litchfield and Wilcoxon (Litchfield J, Wilcoxon F. A simplified method for evaluating dose-effect experiments. J Pharmacol Exp Ther. 1949; 96(1): 99-113).

time of immobility = assay: Forced swim test; type: in vivo; conditions: 3, 10 and 30 mg/kg subcutaneously, 24 h before test; vs vehicle; Wistar Kyoto rats
Description: Adult male Wistar Kyoto rats from Envigo (former Harlan; Blackthorn, UK). Animals are maintained under controlled conditions (21±1° C., 37±1%, 12/12 h light/dark cycles, lights on at 8 a.m.) with food and water available ad libitum. In all studies WKY rats were randomly allocated to a maximum of 5 treatment groups (n=20 per group). […] The dosing of the animals were performed by subcutaneous injection 24 h before test g. The WKY rats were individually placed into a glass cylinder (50 cm height, 20 cm diameter) containing 30 cm of water at 25±1° C. for a 5 min test phase. The test session recorded (using a video camera placed above the cylinder for subsequent behavioural analysis) the time of immobility (s). One-way analysis of variance (ANOVA) was used to detect statistical significance in the FST data. The Fisher least significant difference (LSD) test was used for post hoc analyses. Probability values of P<0.05 were considered as statistically significant. Statistical analyses were performed using SPSS.

[3] = MDR1-MDCKII permeability assay Papp(AB); type: in vitro ADME; conditions: dog, MDCK-MDR1, prodrug compounds, A to B, 60-minute incubation at 37° C., pH 7.4
Description: MDR1-MDCKII Permeability Assay Papp(AB)
MDR1-MDCKII cells (obtained from Piet Borst at the Netherlands Cancer Institute) were seeded onto […] (PET) in 96-well BD insert systems at 2.5×10^5 cells/mL until to 4-7 days for confluent cell monolayer formation.
Test compounds were diluted with the transport buffer (HBSS with 10 mM HEPES, added 1% BSA, pH 7.4) from DMSO stock solution to a concentration of 0.5 μM (DMSO: 0.4%) and applied to the apical or basolateral side of the cell monolayer. Permeation of the test compounds from A to B direction or B to A direction was determined in triplicate over a 60-minute incubation at 37° C. and 5% CO2 with a relative humidity of 95%. In addition, the efflux ratio of each compound was also determined. Test and reference compounds were quantified by LC/MS/MS analysis based on the peak area ratio of analyte/IS.
Reference compounds: Fenoterol (conc: 2 μM) was used as low permeability marker and Propranolol (conc: 2 μM) was used as high permeability marker in A to B Permeability, furthermore was bi-directional permeability of a P-glycoprotein substrate (digoxin) included.
The apparent permeability coefficient Papp (cm/s) was calculated using the equation: Papp=(dCr/dt)×Vr/(A×C0) (1) Where dCr/dt is the cumulative concentration of compound in the receiver chamber as a function of time (μM/s); Vr is the solution volume in the receiver chamber (0.05 mL on the apical side; 0.25 mL on the basolateral side); A is the surface area for the transport, i.e. 0.0804 cm^2 for the area of the monolayer; C0 is the initial concentration in the donor chamber (μM).
The efflux was calculated using the equation: Efflux ratio=Papp(BA)/Papp(AB) (2)
The mass balance (Recovery) was calculated. The mass balance is defined as: the sum of the compound recovered from the acceptor chamber and the compound remaining in the donor chamber at the end of the experiment, divided by the initial donor amount. The mass balance should be as high as possible. Criterion: Recovery <50% is insufficient.
To evaluate the integrity of the cell monolayer, Lucifer Yellow permeability was measured in one direction (A to B). The percentage of Lucifer Yellow was calculated in control wells as an estimation of the overall cell membrane integrity. The wells are considered fully acceptable if % Lucifer Yellow is less than 2%.
The experiments for the prodrugs were the same as for the parent compounds exemplified in Table 3a.

[4] = In vivo exposure (plasma and brain) after intravenous bolus injection; conditions: compound quantified 1c; dose 2 mg/kg intravenous bolus; male Sprague Dawley rats
Description: Brain disposition of test compound was evaluated in male Sprague Dawley rats (standard body weight range). Briefly, discrete (nominal dose: 2 mg/kg, 2 ml/kg) or cassetted (nominal dose: 1 mg/kg/compound, 2 ml/kg) test compounds were administered by intravenous bolus injection (formulated in 10% hydroxypropyl-β-cyclodextrin or 10-20% Captisol, pH=3).
Serial blood samples were collected from a lateral tail vein at designated time points (n=3 per time point) then rats were put under deep isofluorane induced anaesthesia prior to removal of brains (n=3 per time point). Blood samples were stabilized against further metabolism ex vivo by addition of an esterase inhibitor (100 μM diisopropyl fluorophosphate). […]
Seven calibration standards and three QC samples were prepared in plasma and brain homogenate, respectively, in the concentration range 10-10000 ng/mL. […] Study samples with expected concentration above upper limit of quantification were diluted with blank matrix. […]
Samples were analyzed using an AB Sciex API4000 triple quadrupole (TQ) mass spectrometer operated in positive and negative electrospray ionization and MS/MS mode (multiple reaction monitoring, MRM). […] Quantification was performed by linear regression, 1/x2 weighting.
Concentrations of prodrug and drug in plasma and brain were quantified against matrix matched calibration standards.

[5] = molecular target: NR1s1s2 (ligand binding domains of the NMDA receptor), glycine site; conditions: radioligand parameter stated in assay method; obtained from Sigma Aldrich; cited from earlier work

SMILES: COC(=O)[C@H](N)CNC(=O)c1cc2nccc(C)c2s1 [Compound 2c, Methyl (R)-2-amino-3-(7-methylthieno[3,2-b]pyridine-2-carboxamido)propanoate]
effects in resting state Electroencephalography (high frequency oscillation, baseline-normalized power) [1]: significant effects in high frequency oscillation; also recorded: significant effects in resting state Electroencephalography
effects on the maximal electro shock threshold (seizure threshold CC50 current) [2]: dose dependent effects
time of immobility in forced swim test (time of immobility): significant effects in time of immobility at the 30 mg/kg dose

Papp A→B at 60 min, 0.5 µM [3]: 18.4 ×10⁻⁶ cm/s
Total Brain concentration (ng/mL) 30 min post dose [4]: BLOQ
SMILES: Cc1ccnc2cc(C(=O)NC[C@@H](N)C(=O)OC(C)C)sc12 [Compound 2f, Isopropyl (R)-2-amino-3-(7-methylthieno[3,2-b]pyridine-2-carboxamido)propanoate]

SMILES: O=C(O)C(=Cc1c(C(=O)O)[nH]c2cc(Cl)cc(Cl)c12)c1ccccc1 [[3H]-MDL-105,519]
Kd [5]: 1.3 nM
